Like-named read-outs stand apart in the source and are kept apart here.
Legend:
Format in all cases: cell-based
[1] = tested on: all human cancer cell lines successfully tested; test: NCI screen mean graph midpoint (MGM) for growth inhibition
Protocol: COMPARE screening. The compounds described herein were examined for antiproliferative activity against the human cancer cell lines in the National Cancer Institute screen (COMPARE screening), in which the activity of each compound was evaluated with approximately 55 different cancer cell lines of diverse tumor origins. […] Therefore, the MGM value represents an overall assessment of toxicity of the compound across numerous cell lines.
(§1) Selected compounds were tested for antiproliferative activity in the National Cancer Institute's developmental therapeutics assay 60 cell line screen (NCI60). The cells were incubated with the tested compounds at 100, 10, 1, 0.1, and 0.01 μM concentrations for 48 h before treatment with sulforhodamine B dye. Optical densities were recorded, and their ratios relative to that of the control were plotted as percentage growth against the log 10 of the tested compound concentrations.
The cytotoxicities of the compounds to cultured cancer cells were measured in the National Cancer Institute's 60 cell line assay (a.k.a. NCI-60).

colon HCT-116 = test: COMPARE screening (NCI human cancer cell line screen), cytotoxicity GI50
Protocol: as §1

lung HOP-62 = test: as above
Protocol: as §1

melanoma UACC-62 = test: as above
Protocol: as §1

ovarian OVCAR-3 = test: as above
Protocol: as §1

prostate DU-145 = test: as above
Protocol: as §1

renal SN12C = test: as above
Protocol: as §1

breast MDA-MB-435 = test: as above
CNS SF-539 = test: as above
Protocol: as §1

[2] = Table 1, average GI50 of all cell lines tested (approximately 55), test range 10^−8 to 10^−4 molar
[3] = Homo sapiens, HCT-116, read-out: cytotoxicity (GI50) colon HCT-116
[4] = Homo sapiens, HOP-62, read-out: cytotoxicity (GI50) lung HOP-62
[5] = Homo sapiens, UACC-62, read-out: cytotoxicity (GI50) melanoma UACC-62
[6] = Homo sapiens, OVCAR-3, read-out: cytotoxicity (GI50) ovarian OVCAR-3
[7] = Homo sapiens, DU-145, read-out: cytotoxicity (GI50) prostate DU-145
[8] = Homo sapiens, SN12C, read-out: cytotoxicity (GI50) renal SN12C
[9] = Homo sapiens, MDA-MB-435, read-out: cytotoxicity (GI50) breast MDA-MB-435
[10] = Homo sapiens, CNSSF-539, read-out: cytotoxicity (GI50) CNS SF-539
[11] = all human cancer cell lines successfully tested

Row | SMILES | MGM (mean GI50 across cell lines) [1, 2] [µM] | GI50 (colon HCT-116) [µM] | GI50 (lung HOP-62) [µM] | GI50 (melanoma UACC-62) [µM] | GI50 (ovarian OVCAR-3) [µM] | GI50 (prostate DU-145) [µM] | GI50 (renal SN12C) [µM] | GI50 (breast MDA-MB-435) [µM] | further results
1 | COc1cc2c3c(n(CCCn4ccnc4)c(=O)c2cc1OC)-c1cc2c(cc1C3=O)OCO2.Cl [Compound 5l] | – | – | – | – | – | – | – | – | MGM (mean graph midpoint for growth inhibition) [1, 2]: 0.079 ± 0.023 µM
2 | O=C1c2ccccc2-c2c1c1ccc([N+](=O)[O-])cc1c(=O)n2CCN1CCOCC1 [Compound 5i, 5,6-Dihydro-6-(2-morpholin-4-yl-1-ethyl)-3-nitro-5,11-dioxo-11H-indeno[1,2-c]isoquinoline] | 74.1 | – | – | – | – | – | – | – | GI50 (colon HCT-116; [3]): > 100 µM; GI50 (lung HOP-62; [4]): 52.5 µM; GI50 (melanoma UACC-62; [5]): 83.2 µM; GI50 (ovarian OVCAR-3; [6]): > 100 µM; GI50 (prostate DU-145; [7]): 61.7 µM; GI50 (renal SN12C; [8]): 58.9 µM; GI50 (breast MDA-MB-435; [9]): > 100 µM
3 | [N-]=[N+]=NCCCn1c2c(c3ccccc3c1=O)C(=O)c1ccccc1-2 [Compound 5bh] | 12.3 | 4.9 | 7.59 | 19.5 | 7.94 | 29.5 | 25.1 | 7.76 | –
4 | O=C1c2ccccc2-c2c1c1ccccc1c(=O)n2Cc1ccccn1 [Compound 5aw, 5,6-Dihydro-5,11-dioxo-6-(2-pyridylmethyl)-11H-indeno[1,2-c]isoquinoline] | 15.1 | – | – | – | – | – | – | – | GI50 (CNS SF-539; [10]): 12.3 µM; GI50 (lung HOP-62; [4]): 11.2 µM; GI50 (melanoma UACC-62; [5]): 10.7 µM; GI50 (ovarian OVCAR-3; [6]): 13.8 µM; GI50 (prostate DU-145; [7]): 13.5 µM; GI50 (renal SN12C; [8]): 28.2 µM; GI50 (breast MDA-MB-435; [9]): 3.09 µM
5 | CN(C)CCCn1c2c(c3ccc([N+](=O)[O-])cc3c1=O)C(=O)c1ccccc1-2 [Compound 5c] | 9.77 | 6.46 | – | 7.08 | 25.7 | – | 4.17 | > 100 | –
6 | CC(C)(C)OC(=O)NCCCCCCCn1c2c(c3ccccc3c1=O)C(=O)c1ccccc1-2 [Compound 5af, 6-(7′-tert-BOC-Aminoheptyl)-5,6-dihydro-5,11-dioxo-11H-indeno[1,2-c]isoquinoline] | 30.9 | 17.4 | – | 20 | 33.9 | 31.6 | 74.1 | 81.3 | GI50 (CNS SF-539): 20.9 µM
7 | CC(C)(C)OC(=O)NCCCCCCCCCn1c2c(c3ccccc3c1=O)C(=O)c1ccccc1-2 [Compound 5ah, 6-(9′-tert-BOC-Aminononyl)-5,6-dihydro-5,11-dioxo-11H-indeno[1,2-c]isoquinoline] | 50.1 | – | 24.5 | 17.4 | 28.8 | > 100 | 77.6 | > 100 | GI50 (CNS SF-539): 17.8 µM
8 | Cl.O=C1c2ccccc2-c2c1c1ccccc1c(=O)n2CCc1ccccn1 [Compound 5ay, 5,6-Dihydro-5,11-dioxo-6-(2-pyridylethyl)-11H-indeno[1,2-c]isoquinoline Hydrochloride] | 53.7 | – | – | – | – | – | – | – | GI50 (CNS SF-539; [10]): 17.4 µM; GI50 (lung HOP-62; [4]): 21.4 µM; GI50 (melanoma UACC-62; [5]): 27.5 µM; GI50 (ovarian OVCAR-3; [6]): > 100 µM; GI50 (prostate DU-145; [7]): 74.1 µM; GI50 (renal SN12C; [8]): 77.6 µM; GI50 (breast MDA-MB-435; [9]): 5.13 µM
9 | Cl.O=C1c2ccccc2-c2c1c1ccccc1c(=O)n2CCCCNCCCn1c2c(c3ccccc3c1=O)C(=O)c1ccccc1-2 [Compound 14b, Bis{(5,6-dihydro-5,11-diketo-11H-indeno[1,2-c]isoquinoline)}-(6-propyl,6′-butyl)amine Hydrochloride] | – | 0.056 | 0.028 | 0.513 | 0.372 | 0.288 | 0.132 | 0.562 | MGM (mean graph midpoint for growth inhibition) [1, 11]: 0.357 ± 0.087 µM
10 | O=C(O)C(F)(F)F.O=C(O)C(F)(F)F.O=C1c2ccccc2-c2c1c1ccccc1c(=O)n2CCNCCNCCn1c2c(c3ccccc3c1=O)C(=O)c1ccccc1-2 [Compound 14c, Bis-1,2-{(5,6-dihydro-5,11-diketo-11H-indeno[1,2-c]isoquinoline)-6-ethylamino}ethane Bis(trifluoroacetate)] | – | 0.029 | 0.032 | 0.331 | 1.66 | 0.182 | 0.178 | 1.66 | MGM (mean graph midpoint for growth inhibition) [1, 11]: 0.427 ± 0.01 µM
11 | CN(C)CCCn1c2c(c3ccccc3c1=O)C(=O)c1ccccc1-2 [Compound 5d] | – | 0.58 | – | 0.51 | 1.7 | 1.32 | 0.91 | 2.82 | –
12 | O=C1c2ccccc2-c2c1c1ccc([N+](=O)[O-])cc1c(=O)n2CCCBr [Compound 5bb, 6-(3-Bromopropyl)-5,6-dihydro-5,11-dioxo-3-nitro-11H-indeno[1,2-c]isoquinoline] | 40.0 | – | – | – | – | – | – | – | GI50 (CNS SF-539; [10]): > 100 µM; GI50 (colon HCT-116; [3]): 3.47 µM; GI50 (melanoma UACC-62; [5]): > 100 µM; GI50 (ovarian OVCAR-3; [6]): > 100 µM; GI50 (prostate DU-145; [7]): > 100 µM; GI50 (renal SN12C; [8]): > 100 µM; GI50 (breast MDA-MB-435; [9]): > 100 µM
13 | COc1cc2c3c(n(CCCN(CCCN(CCCn4c5c(c6ccccc6c4=O)C(=O)c4ccccc4-5)C(=O)OC(C)(C)C)C(=O)OC(C)(C)C)c(=O)c2cc1OC)-c1cc2c(cc1C3=O)OCO2 [Compound 16a, 1,3-{6-(3-tert-Butyloxycarbonylamino-1-propyl)-5,6-dihydro-2,3-dimethoxy-8,9-methylenedioxy-5,11-dioxo-11H-indeno[1,2-c]isoquinoline}-{5′,6′-dihydro-6′-[(3′-tert-butyloxycarbonylamino)-1′-propyl]-5′,11′-dioxo-11′H-indeno[1,2-c]isoquinoline}propane] | – | > 100 | > 100 | > 100 | – | – | > 100 | > 100 | MGM (mean GI50 across cell lines) [1, 11]: 68.0 µM
14 | COc1ccc2c(c1)C(=O)c1c-2n(CCCN2CCOCC2)c(=O)c2cc([N+](=O)[O-])ccc12 [Compound 5bj] | – | < 0.01 | < 0.01 | < 0.01 | < 0.01 | – | < 0.01 | < 0.01 | MGM (mean graph midpoint for growth inhibition) [1, 2]: 0.014 ± 0.001 µM
15 | COc1cc2c3c(oc(=O)c2cc1OC)-c1ccccc1C3=O [Compound 4a, 2,3-dimethoxybenz[d]indeno[1,2-b]pyran-5,11-dione] | – | – | – | – | – | – | – | – | GI50 (CNS SF-539; [10]): ≥ 100 µM; GI50 (colon HCT-116; [3]): ≥ 100 µM; GI50 (melanoma UACC-62; [5]): ≥ 100 µM; GI50 (ovarian OVCAR-3; [6]): ≥ 100 µM; GI50 (prostate DU-145; [7]): ≥ 100 µM; GI50 (renal SN12C; [8]): ≥ 100 µM; GI50 (breast MDA-MB-435; [9]): ≥ 100 µM; MGM (mean GI50 across cell lines) ([1]; Homo sapiens): ≥ 100 µM
16 | COc1cc2c3c(n(CCCN(C)C)c(=O)c2cc1OC)-c1ccccc1C3=O [Compound 5a] | 6.17 | 2.45 | – | 6.61 | 5.89 | 4.47 | 11 | 7.08 | GI50 (CNS SF-539): 6.17 µM
17 | O=C1c2ccccc2-c2c1c1ccccc1c(=O)n2CCCn1ccnc1 [Compound 5g] | 1.86 | 1.41 | – | 0.79 | 1.66 | 1.41 | 1.66 | – | GI50 (CNS SF-539): 2.34 µM
18 | COc1ccc2c(c1)C(=O)c1c-2n(CCCI)c(=O)c2cc([N+](=O)[O-])ccc12 [Compound 5bd] | – | 0.046 | – | 0.148 | 3.02 | 0.034 | 0.309 | 1.48 | GI50 (CNS SF-539): 0.058 µM; MGM (mean graph midpoint for growth inhibition) [1, 2]: 0.328 ± 0.046 µM
19 | CN(CCCn1c2c(c3ccccc3c1=O)C(=O)c1ccccc1-2)CCCn1c2c(c3ccccc3c1=O)C(=O)c1ccccc1-2 [Compound 12d, Bis{(5,6-dihydro-5,11-diketo-11H-indeno[1,2-c]isoquinoline)-6-propyl}methylamine] | – | – | – | – | – | – | – | – | GI50 (CNS SF-539; CNS SF-539, concentration corresponding to 50% growth inhibition, read-out: cytotoxicity (GI50 in μM) CNS SF-539): 1.12 µM; GI50 (melanoma UACC-62; melanoma UACC-62, concentration corresponding to 50% growth inhibition, read-out: cytotoxicity (GI50 in μM) melanoma UACC-62): 2 µM; GI50 (ovarian OVCAR-3; ovarian OVCAR-3, concentration corresponding to 50% growth inhibition, read-out: cytotoxicity (GI50 in μM) ovarian OVCAR-3): 1.2 µM; GI50 (renal SN12C; renal SN12C, concentration corresponding to 50% growth inhibition, read-out: cytotoxicity (GI50 in μM) renal SN12C): 0.589 µM; GI50 (breast MDA-MB-435; breast MDA-MB-435, concentration corresponding to 50% growth inhibition, read-out: cytotoxicity (GI50 in μM) breast MDA-MB-435): 1.55 µM; MGM (mean graph midpoint for growth inhibition) [1, 11]: 0.934 ± 0.476 µM
20 | O=C(O)C(F)(F)F.O=C(O)C(F)(F)F.O=C1c2ccccc2-c2c1c1ccccc1c(=O)n2CCCNCCNCCCn1c2c(c3ccccc3c1=O)C(=O)c1ccccc1-2 [Compound 14e, Bis-1,2-{(5,6-dihydro-5,11-diketo-11H-indeno[1,2-c]isoquinoline)-6-propylamino}ethane Bis(trifluoroacetate)] | – | < 0.01 | < 0.01 | 0.052 | 1.02 | < 0.01 | < 0.01 | 0.933 | MGM (mean graph midpoint for growth inhibition) [1, 11]: 0.152 ± 0.062 µM

Source: patent publication US9796753B2, “N-substituted indenoisoquinolines and syntheses thereof” (Purdue Research Foundation, priority 2005, dated 2017)
